Values joined by “and” are separate entries in the source; they are usually repeats but may differ in a detail not shown here. Equal values may be shown once. Results filed as inconclusive are left out.
Tested on: MX-1 breast xenograft, nude mice, tumor weight T/C
Assay: NCI In Vivo Anticancer Drug Screen. Data for tumor model Human Mammary Carcinoma MX-1 Xenograft (intrarenal inoculation) in NU/NU Swiss (nude) mice
Conditions: endpoint: mean tumor weight change, higher = larger tumour
Procedure, shortened: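 Antitumour effect measured in vivo against vehicle controls, expressed as T/C.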

[1] = dose: 3.13 mg/kg/injection, schedule: Q01DX010 (sc), vehicle: saline
[2] = dose: 6.25 mg/kg/injection, schedule: Q01DX010 (sc), vehicle: saline
[3] = dose: 25.0 mg/kg/injection, schedule: Q01DX010 (sc), vehicle: Klucel (hydroxypropylcellulose) (HPC)
[4] = dose: 600.0 mg/kg/injection, schedule: Q04DX003 (sc), vehicle: saline with Tween-80
[5] = dose: 1200.0 mg/kg/injection, schedule: Q04DX003 (sc), vehicle: saline with Tween-80
[6] = dose: 2400.0 mg/kg/injection, schedule: Q04DX003 (sc), vehicle: saline with Tween-80
[7] = dose: 300.0 mg/kg/injection, schedule: Q04DX003 (sc), vehicle: saline with Tween-80
[8] = dose: 75.0 mg/kg/injection, schedule: Q04DX003 (sc), vehicle: saline with Tween-80
[9] = dose: 150.0 mg/kg/injection, schedule: Q04DX003 (sc), vehicle: saline with Tween-80

In the case of `Nc1nncs1`, the T/C [1] is reported as 92 % of control, the T/C [2] is reported as 99 % of control and the T/C (dose: 25.0 mg/kg/injection, schedule: Q01DX010 (sc), vehicle: saline) is reported as 86 % of control.
`CC(=O)NCCCCCCNC(C)=O` was tested, and the T/C (dose: 50.0 mg/kg/injection, schedule: Q01DX010 (sc), vehicle: saline) was 163 % of control, the T/C (dose: 100.0 mg/kg/injection, schedule: Q01DX010 (sc), vehicle: saline) was 124 % of control and the T/C (dose: 200.0 mg/kg/injection, schedule: Q01DX010 (sc), vehicle: saline) was 103 % of control and 111 % of control. For the same compound, the T/C (dose: 400.0 mg/kg/injection, schedule: Q01DX010 (sc), vehicle: saline) was 84 % of control, the T/C (dose: 800.0 mg/kg/injection, schedule: Q01DX010 (sc), vehicle: saline) was 88 % of control and the T/C (dose: 1600.0 mg/kg/injection, schedule: Q01DX010 (sc), vehicle: saline) was 78 % of control and 103 % of control. For the same compound, the T/C (dose: 3200.0 mg/kg/injection, schedule: Q01DX010 (sc), vehicle: saline) was 104 % of control and the T/C (dose: 6400.0 mg/kg/injection, schedule: Q01DX010 (sc), vehicle: saline) was 58 % of control.
With `COC(=O)Nc1cccc(-c2nc3ccc(NC(=O)OC)cc3c(=O)n2-c2ccccc2)c1` the T/C [3] was 87 % of control, the T/C (dose: 100.0 mg/kg/injection, schedule: Q01DX010 (sc), vehicle: Klucel (hydroxypropylcellulose) (HPC)) was 33 % of control and the T/C (dose: 400.0 mg/kg/injection, schedule: Q01DX010 (sc), vehicle: Klucel (hydroxypropylcellulose) (HPC)) was 123 % of control.
In the case of `Cc1c2c(ccc3ccccc32)c[n+]2ccccc12`, the T/C [1] is reported as 101 % of control, the T/C [2] is reported as 82 % of control and the T/C (dose: 12.5 mg/kg/injection, schedule: Q01DX010 (sc), vehicle: saline) is reported as 25 % of control.
In the case of `CC1=CC(=Nc2ccc(N(CCCl)CCCl)cc2)C=C(C)C1=O`, the T/C (dose: 150.0 mg/kg/injection, schedule: Q04DX003 (sc), vehicle: Klucel (hydroxypropylcellulose) (HPC)) is reported as 34 % of control and the T/C (dose: 2400.0 mg/kg/injection, schedule: Q04DX003 (sc), vehicle: Klucel (hydroxypropylcellulose) (HPC)) is reported as -89 % of control.
With `COc1cc(C(C)(C)C)cc(OC)c1C(O)(c1c(OC)cc(C(C)(C)C)cc1OC)c1c(OC)cc(C(C)(C)C)cc1OC` the T/C [4] was 212 % of control, the T/C [5] was 154 % of control and the T/C [6] was 207 % of control.
For `C1CCC2[N-]CC3CCCCC3[N-]CC3CCCCC3[N-]CC3CCCCC3[N-]CC2C1.[Cu]` (stereo unspecified), the T/C (dose: 3.13 mg/kg/injection, schedule: Q01DX010 (sc), vehicle: Klucel (hydroxypropylcellulose) (HPC)) was 47 % of control, the T/C (dose: 6.25 mg/kg/injection, schedule: Q01DX010 (sc), vehicle: Klucel (hydroxypropylcellulose) (HPC)) was 193 % of control and the T/C (dose: 12.5 mg/kg/injection, schedule: Q01DX010 (sc), vehicle: Klucel (hydroxypropylcellulose) (HPC)) was 178 % of control. For the same compound, the T/C [3] was 113 % of control.
For `CCCCCCCC(=O)[O][Hg][CH2]C1COC([CH2][Hg][O]C(=O)CCCCCCC)CO1` (stereo unspecified), the T/C [7] was 58 % of control, the T/C [4] was 70 % of control and the T/C [5] was 50 % of control. For the same compound, the T/C [6] was 36 % of control.
For `COc1ccc2c(NCCCCCCNc3c4ccccc4nc4cc(OC)ccc34)c3ccccc3nc2c1`, the T/C (dose: 1.25 mg/kg/injection, schedule: Q01DX010 (sc), vehicle: lactic acid) was 81 % of control, the T/C (dose: 2.5 mg/kg/injection, schedule: Q01DX010 (sc), vehicle: lactic acid) was 165 % of control and the T/C (dose: 5.0 mg/kg/injection, schedule: Q01DX010 (sc), vehicle: lactic acid) was 79 % of control. For the same compound, the T/C (dose: 10.0 mg/kg/injection, schedule: Q01DX010 (sc), vehicle: lactic acid) was 92 % of control.
With `Cc1noc(N)c1N` the T/C (dose: 300.0 mg/kg/injection, schedule: Q04DX003 (sc), vehicle: water) was 102 % of control, the T/C (dose: 600.0 mg/kg/injection, schedule: Q04DX003 (sc), vehicle: water) was 97 % of control and the T/C (dose: 1200.0 mg/kg/injection, schedule: Q04DX003 (sc), vehicle: water) was 102 % of control. The T/C (dose: 2400.0 mg/kg/injection, schedule: Q04DX003 (sc), vehicle: water) was 92 % of control.
With `O=C1N[C@@H]([C@H]2CC[C@H](Cl)CN2)C(=O)N[C@H]1[C@H]1CC[C@H](Cl)CN1` the T/C (dose: 0.62 mg/kg/injection, schedule: Q01DX010 (sc), vehicle: water) was 110 % of control, the T/C (dose: 2.5 mg/kg/injection, schedule: Q01DX010 (sc), vehicle: water) was 72 % of control and 73 % of control and the T/C (dose: 2.5 mg/kg/injection, schedule: Q04DX003 (sc), vehicle: water) was 11 % of control. The T/C (dose: 5.0 mg/kg/injection, schedule: Q01DX010 (sc), vehicle: water) was 30 % of control and 46 % of control, the T/C (dose: 5.0 mg/kg/injection, schedule: Q04DX003 (sc), vehicle: water) was -62 % of control and the T/C (dose: 10.0 mg/kg/injection, schedule: Q04DX003 (sc), vehicle: water) was -100 % of control. For the same compound, the T/C (dose: 20.0 mg/kg/injection, schedule: Q04DX003 (sc), vehicle: water) was -100 % of control.
`O=C1N(Cl)C(=O)C(c2ccc(Cl)cc2)(c2ccc(Cl)cc2)N1Cl` was tested, and the T/C (dose: 50.0 mg/kg/injection, schedule: Q01DX010 (sc), vehicle: saline with Tween-80) was 68 % of control, the T/C (dose: 100.0 mg/kg/injection, schedule: Q01DX010 (sc), vehicle: saline with Tween-80) was 111 % of control and the T/C (dose: 200.0 mg/kg/injection, schedule: Q01DX010 (sc), vehicle: saline with Tween-80) was 65 % of control. For the same compound, the T/C (dose: 400.0 mg/kg/injection, schedule: Q01DX010 (sc), vehicle: saline with Tween-80) was 87 % of control.
With `CCC1=C[C@H]2CN(CCc3c([nH]c4ccccc34)[C@@](C(=O)OC)(c3cc4c(cc3OC)N(C)[C@H]3[C@@](O)(C(=O)NC)[C@H](OC(C)=O)[C@]5(CC)C=CCN6CC[C@]43[C@@H]65)C2)C1` the T/C (dose: 1.0 mg/kg/injection, schedule: Q04DX003 (sc), vehicle: water) was 48 % of control and the T/C (dose: 2.0 mg/kg/injection, schedule: Q04DX003 (sc), vehicle: water) was 45 % of control.
For `CN(C)N=Nc1ccccc1`, the T/C (dose: 100.0 mg/kg/injection, schedule: Q04DX003 (sc), vehicle: Klucel (hydroxypropylcellulose) (HPC)) was 36 % of control.
`CS(=O)(=O)OCCCCOS(C)(=O)=O` was tested, and the T/C (dose: 6.25 mg/kg/injection, schedule: Q01DX010 (sc), vehicle: saline with Tween-80) was 114 % of control, the T/C (dose: 12.5 mg/kg/injection, schedule: Q01DX010 (sc), vehicle: saline with Tween-80) was 68 % of control and the T/C (dose: 25.0 mg/kg/injection, schedule: Q01DX010 (sc), vehicle: saline with Tween-80) was 49 % of control.
In the case of `O=[n+]1c2ccccc2n([O-])c2ccccc21.[Cl][Ni][Cl]`, the T/C [8] is reported as 90 % of control and the T/C [9] is reported as 53 % of control.
For `CN=C(N)N/N=C(\C)c1ccc2oc3ccc(/C(C)=N/NC(N)=NC)cc3c2c1`, the T/C [8] was 72 % of control, the T/C [9] was 86 % of control and the T/C [7] was 80 % of control.
With `C[C@H]1C[C@@H]2[C@H]([C@@H](O)C[C@@]3(C)[C@H]2CC[C@]3(O)C(=O)CO)[C@@]2(C)C=CC(=O)C=C12` the T/C (dose: 200.0 mg/kg/injection, schedule: Q04DX003 (sc), vehicle: Klucel (hydroxypropylcellulose) (HPC)) was 33 % of control, the T/C (dose: 400.0 mg/kg/injection, schedule: Q04DX003 (sc), vehicle: Klucel (hydroxypropylcellulose) (HPC)) was 31 % of control and the T/C (dose: 800.0 mg/kg/injection, schedule: Q04DX003 (sc), vehicle: Klucel (hydroxypropylcellulose) (HPC)) was 30 % of control. The T/C (dose: 1600.0 mg/kg/injection, schedule: Q04DX003 (sc), vehicle: Klucel (hydroxypropylcellulose) (HPC)) was 13 % of control.
In the case of `Cc1c2cc[n+](C)cc2c(C)c2c1[nH]c1ccc(O)cc12`, the T/C (dose: 1.5 mg/kg/injection, schedule: Q04DX003 (sc), vehicle: water) is reported as 167 % of control and the T/C (dose: 6.0 mg/kg/injection, schedule: Q04DX003 (sc), vehicle: water) is reported as 91 % of control.
`COC(C(=O)C(O)C(C)O)C1Cc2cc3cc(OC4CC(OC(C)=O)C(OC5CC(O)C(OC)C(C)O5)C(C)O4)cc(O)c3c(O)c2C(=O)C1OC1CC(OC2CC(OC3CC(C)(O)C(OC(=O)C(C)C)C(C)O3)C(O)C(C)O2)C(O)C(C)O1` (stereo unspecified) was tested, and the T/C (dose: 1.0 mg/kg/injection, schedule: Q04DX003 (sc), vehicle: saline with Tween-80) was 47 % of control, the T/C (dose: 1.5 mg/kg/injection, schedule: Q04DX003 (sc), vehicle: saline with Tween-80) was 11 % of control and 26 % of control and 28 % of control and the T/C (dose: 2.0 mg/kg/injection, schedule: Q04DX003 (sc), vehicle: saline with Tween-80) was 49 % of control. The T/C (dose: 4.0 mg/kg/injection, schedule: Q04DX003 (sc), vehicle: saline with Tween-80) was 13 % of control and the T/C (dose: 8.0 mg/kg/injection, schedule: Q04DX003 (sc), vehicle: saline with Tween-80) was -79 % of control.

Source: PubChem BioAssay AID296 (DTP/NCI, 2004)
